Test results published in US6833456B2, “Indolyl-urea derivatives of thienopyridines useful as antiangiogenic agents, and methods for their use” (Agouron Pharmaceuticals, Inc., priority 2002, dated 2004).
Where “and” joins values, the source holds several entries; their conditions need not be identical. Equal entries are not always repeated.

How the values were obtained:
HUVEC = assay: bFGF HUVEC proliferation; format: cell-based, human; details: bFGF stimulated HUVEC
[1] = biological target: T1, unphosphorylated VEGF-R2Δ50 (FLVK) (Homo sapiens, UniProt P35968, DEL940-989/E990V); assay: VEGF-R2 coupled spectrophotometric assay, unphosphorylated construct (FLVK); format: biochemical; details: for inhibition at 0.05 µM: percent inhibition at 50 nM
T1 construct: VEGF-R2Δ50 contains residues 806-939 and 990-1171; made in house; host or cells: baculovirus/insect cell system
How it was run: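 Continuous coupled assay (PEP, PK, LDH; NADH loss at 340 nm) in 200 mM HEPES pH 7.5 with 3 mM ATP, 20 mM poly(E4Y1), 60 mM MgCl2 plus 2 mM MnCl2, started with 5-40 nM non-autophosphorylated VEGF-R2Δ50. Ki values from activity across compound concentrations, Morrison fit.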

[2] = Human liver microsome (HLM) assay; format: in vitro ADME; details: human liver microsomes
Method: Compound metabolism in human liver microsomes was measured by LC-MS analytical assay procedures as follows. First, human liver microsomes (HLM) were thawed and diluted to 5 mg/mL with cold 100 mM potassium phosphate (KPO4) buffer. Appropriate amounts of KPO4 buffer, NADPH-regenerating solution (containing B-NADP, glucose-6-phosphate, glucose-6-phosphate dehydrogenase, and MgCl2), and HLM were preincubated in 13×100 mm glass tubes at 37° C. for 10 min. (3 tubes per test compound—triplicate). Test compound (5 μM final) was added to each tube to initiate reaction and was mixed by gentle vortexing, followed by incubation at 37° C. […] Samples were centrifuged at 4000 rpm for 20 min. to precipitate proteins and salt (Beckman Allegra 6KR, S/N ALK98DO6, #634). Supernatant was transferred to new 12×75 mm glass tubes and evaporated by Speed-Vac centrifugal vacuum evaporator. Samples were reconstituted in 200 μL 0.1% formic acid/acetonitrile (90/10) and vortexed vigorously to dissolve. The samples were then transferred to separate polypropylene microcentrifuge tubes and centrifuged at 14000×g for 10 min. (Fisher Micro 14, S/N M0017580). […]
The combined compound samples were injected into the LC-MS system, composed of a Hewlett-Packard HP1100 diode array HPLC and a Micromass Quattro II triple quadruple mass spectrometer operating in positive electrospray SIR mode (programmed to scan specifically for the molecular ion of each test compound). Each test compound peak was integrated at each timepoint. […]

KDR (VEGFR2) = biological target: T2, KDR (VEGFR2) (Homo sapiens, UniProt P35968); assay: KDR (VEGFR2) phosphorylation in PAE-KDR cells assay; format: cell-based; details: PAE cells overexpressing human KDR, VEGF stimulated; read-out: PAE KDR autophos IC50
T2 construct: expressed in transfected cells; host or cells: porcine aorta endothelial (PAE) cells
How it was run: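 PAE cells overexpressing human KDR, serum-starved 16 h (0.1% FBS), treated with compound 1 h at 37° C (0.5% DMSO), then stimulated 8 min with 500 ng/ml VEGF plus 2 mM Na3VO4. Lysate KDR phosphotyrosine measured by capture ELISA (anti-pY HRP, 450 nm); IC50 by four-parameter fit.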

T2 sequence (P35968 20-1356): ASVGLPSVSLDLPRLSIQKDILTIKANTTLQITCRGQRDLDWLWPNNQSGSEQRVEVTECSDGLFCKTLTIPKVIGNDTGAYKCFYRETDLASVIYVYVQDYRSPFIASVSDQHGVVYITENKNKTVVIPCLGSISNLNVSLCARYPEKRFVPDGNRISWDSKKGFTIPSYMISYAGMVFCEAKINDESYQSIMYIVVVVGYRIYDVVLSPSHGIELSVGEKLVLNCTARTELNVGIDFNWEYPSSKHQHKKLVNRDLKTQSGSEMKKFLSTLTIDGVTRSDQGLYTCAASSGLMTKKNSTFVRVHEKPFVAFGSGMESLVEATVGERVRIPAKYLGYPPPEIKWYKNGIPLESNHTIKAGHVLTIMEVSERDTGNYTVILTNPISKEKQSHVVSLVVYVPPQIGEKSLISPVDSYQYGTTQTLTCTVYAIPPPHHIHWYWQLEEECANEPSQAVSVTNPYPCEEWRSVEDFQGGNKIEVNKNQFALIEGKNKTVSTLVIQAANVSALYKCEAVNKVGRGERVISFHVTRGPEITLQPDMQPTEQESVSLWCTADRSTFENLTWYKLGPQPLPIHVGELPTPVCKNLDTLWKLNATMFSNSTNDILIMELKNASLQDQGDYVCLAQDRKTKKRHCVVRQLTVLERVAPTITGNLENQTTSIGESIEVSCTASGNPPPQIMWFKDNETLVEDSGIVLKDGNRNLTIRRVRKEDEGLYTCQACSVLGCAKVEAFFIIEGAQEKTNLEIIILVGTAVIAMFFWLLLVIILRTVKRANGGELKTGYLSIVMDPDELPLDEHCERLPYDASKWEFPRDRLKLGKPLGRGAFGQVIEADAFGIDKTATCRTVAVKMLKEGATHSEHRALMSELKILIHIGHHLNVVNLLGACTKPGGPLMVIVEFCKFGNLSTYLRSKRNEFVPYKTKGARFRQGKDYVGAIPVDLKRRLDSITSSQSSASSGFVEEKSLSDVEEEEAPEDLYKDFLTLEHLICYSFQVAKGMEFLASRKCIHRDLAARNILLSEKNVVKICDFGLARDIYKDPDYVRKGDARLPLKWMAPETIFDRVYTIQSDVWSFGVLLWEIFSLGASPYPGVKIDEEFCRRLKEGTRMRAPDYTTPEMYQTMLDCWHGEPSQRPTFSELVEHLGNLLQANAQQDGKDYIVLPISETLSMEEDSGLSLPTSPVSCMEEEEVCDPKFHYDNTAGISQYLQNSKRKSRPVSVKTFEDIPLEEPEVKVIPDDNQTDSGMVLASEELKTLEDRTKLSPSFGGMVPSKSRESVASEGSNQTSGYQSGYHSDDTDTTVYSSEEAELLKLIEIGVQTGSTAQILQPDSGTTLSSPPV
T1 sequence (P35968 with tags, fused parts or gaps DEL940-989/E990V limits assumed): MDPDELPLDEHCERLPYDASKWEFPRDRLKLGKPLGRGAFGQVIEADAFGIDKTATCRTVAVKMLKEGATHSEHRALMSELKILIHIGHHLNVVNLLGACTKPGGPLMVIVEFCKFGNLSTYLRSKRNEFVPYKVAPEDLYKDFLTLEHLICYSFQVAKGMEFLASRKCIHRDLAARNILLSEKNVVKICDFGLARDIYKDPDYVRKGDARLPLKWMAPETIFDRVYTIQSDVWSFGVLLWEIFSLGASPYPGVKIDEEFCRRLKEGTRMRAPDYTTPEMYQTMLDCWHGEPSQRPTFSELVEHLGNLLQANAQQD

Ki [1] [nM] | inhibition at 0.05 µM [1] [%] | % remain (HLM-NADPH, 0.5 h) [2] [%] | IC50 (KDR (VEGFR2)) | % remain (HLM-UDPGA, 0.5 h) [2] [%] | Structure (SMILES) | IC50 (HUVEC; Homo sapiens, HUVEC) [nM] | IC50 (HUVEC)
1.1 | 97 | 85 | 0.45 nM and 0.51 nM |  | COC[C@H]1CCCN1C(=O)c1cc2nccc(Nc3ccc4c(c3)cc(C)n4C(=O)NC3CC3)c2s1 [Example 1d, 5-[2-(2R-Methoxymethyl-pyrrolidine-1-carbonyl)-thieno[3,2-b]pyridin-7-ylamino]-2-methyl-indole-1-carboxylic acid cyclopropylamide] | 24 | 23.4 nM
1.13 | 87 | 76.3 | 0.67 nM and 0.35 nM and 0.41 nM |  | CNC(=O)n1c(C)cc2cc(Nc3ccnc4cc(C(=O)N5CCC[C@H]5COC)sc34)ccc21 [Example 1t, 5-(2-[(S)-2-(methoxymethyl)pyrrolidine-1-carbonyl]thieno[3,2-b]pyridin-7-ylamino)-2-methylindole-1-carboxylic acid methylamide] |  | 
2.1 | 84 | 91.1 | 0.36 nM and 0.28 nM and 0.32 nM | 101.8 | CNC(=O)n1c(C)cc2cc(Nc3ccnc4cc(-c5nccn5C)sc34)ccc21 [Example 2a, 5-(2-[1-methyl-1H-imidazol-2-yl]thieno[3,2-b]pyridin-7-ylamino)-2-methylindole-1-carboxylic acid methylamide] |  | 
1.03 | 85 | 92.1 | 1.42 nM and 1.43 nM and 1.27 nM | 104.8 | CNC(=O)n1c(C)cc2cc(Nc3ccnc4cc(C(=O)N5CCC[C@H]5CO)sc34)ccc21 [Example 2b, 5-(2-[(S)-2-(hydroxymethyl)pyrrolidine-1-carbonyl]thieno[3,2-b]pyridin-7-ylamino)-2-methylindole-1-carboxylic acid methylamide] |  | 
0.56 | 97 | 76.2 | 0.67 nM and 0.42 nM (2×) |  | COC[C@@H]1CCCN1C(=O)c1cc2nccc(Nc3ccc4c(c3)cc(C)n4C(=O)NC3CC3)c2s1 [Example 2c, 5-(2-[(S)-2-(methoxymethyl)pyrrolidine-1-carbonyl]thieno[3,2-b]pyridin-7-ylamino)-2-methylindole-1-carboxylic acid cyclopropylamide] | 41 | 27 nM and 33 nM and 24 nM and 40 nM
0.79 | 81 |  | 0.1 nM and 0.041 nM |  | CCOC(=O)c1csc(-c2cc3nccc(Nc4ccc5c(c4)cc(C)n5C(=O)NC)c3s2)n1 [Example 3c, 2-[7-(2-Methyl-1-methylcarbamoyl-1H-indol-5-ylamino)-thieno[3,2-b]pyridin-2-yl]-thiazole-4-carboxylic acid ethyl ester] | 184 | 262 nM
10.5 | 57 |  | 1.85 nM |  | CNC(=O)n1c(C)cc2cc(Nc3cccc4cc(C(=O)N5C[C@H](OC)C[C@H]5CO)sc34)ccc21 [Example 3f, 5-[2-((2S,4R)-2-Hydroxymethyl-4-methoxy-pyrrolidine-1-carbonyl)-benzo[b]thiophen-7-ylamino]-2-methyl-indole-1-carboxylic acid methylamide] | 2050 | 
1.12 | 95 |  | 2.6 nM |  | CO[C@@H]1C[C@@H](CO)N(C(=O)c2cc3cccc(Nc4ccc5c(c4)cc(C)n5C(=O)NC4CC4)c3s2)C1 [Example 3g, 5-[2-((2S,4R)-2-Hydroxymethyl-4-methoxy-pyrrolidine-1-carbonyl)-benzo[b]thiophen-7-ylamino]-2-methyl-indole-1-carboxylic acid cyclopropylamide] | 656 | 
1.35 | 93 |  | 0.43 nM and 0.52 nM |  | CNC(=O)n1c(C)cc2cc(Oc3ccnc4cc(C(=O)N5C[C@H](OC)C[C@H]5CO)sc34)ccc21 [Example 3o, 5-[2-(2-Hydroxymethyl-4-methoxy-pyrrolidine-1-carbonyl)-thieno[3,2-b]pyridin-7-yloxy]-2-methyl-indole-1-carboxylic acid methylamide] | 246 | 
0.13 | 97 | 70.9 | 0.21 nM (2×) and 0.25 nM |  | COC[C@@H]1CCCN1C(=O)c1cc2nccc(Oc3ccc4c(c3)cc(C)n4C(=O)NC3CC3)c2s1 [Example 4b, 5-(2-[(S)-2-(methoxymethyl)pyrrolidine-1-carbonyl]thieno[3,2-b]pyridin-7-yloxy)-2-methylindole-1-carboxylic acid cyclopropylamide] | 11.7 | 
0.1 | 96 | 76.1 | 0.28 nM and 0.24 nM and 0.36 nM |  | C#CCNC(=O)n1c(C)cc2cc(Oc3ccnc4cc(C(=O)N5CCC[C@H]5COC)sc34)ccc21 [Example 4c, 5-(2-[(S)-2-(methoxymethyl)pyrrolidine-1-carbonyl]thieno[3,2-b]pyridin-7-yloxy)-2-methylindole-1-carboxylic acid prop-2-ynylamide] |  | 
0.121 | 96 |  | 0.86 nM and 0.35 nM and 0.34 nM |  | CNC(=O)n1c(C)cc2cc(Oc3ccnc4cc(C(=O)N5CC[C@@H](OC)C5)sc34)ccc21 [Example 4j, 5-[2-(3R-Methoxy-pyrrolidine-1-carbonyl)-thieno[3,2-b]pyridin-7-yloxy]-2-methyl-indole-1-carboxylic acid methylamide] | 2.5 | 4.7 nM
0.63 | 97 |  | 0.012 nM and 0.009 nM |  | C#CCNC(=O)n1c(C)cc2cc(Oc3ccnc4cc(C(=O)N5CC[C@@H](O)C5)sc34)ccc21 [Example 4o, 5-[2-(3R-Hydroxy-pyrrolidine-1-carbonyl)-thieno[3,2-b]pyridin-7-yloxy]-2-methyl-indole-1-carboxylic acid prop-2-ynylamide] | 7.9 | 
0.12 | 100 |  | 0.28 nM and 0.5 nM and 0.53 nM |  | CNC(=O)n1c(C)cc2c(F)c(Oc3ccnc4cc(C(=O)N5CCC[C@H]5CO)sc34)ccc21 [Example 5n, 4-Fluoro-5-[(2-{[(2S)-2-(hydroxymethyl)pyrrolidin-1-yl]carbonyl}thieno[3,2-b]pyridin-7-yl)oxy]-N,2-dimethyl-1H-indole-1-carboxamide] | 93 | 
0.286 | 97 |  | 0.45 nM and 0.19 nM |  | C#CCNC(=O)n1c(C)cc2cc(Oc3ccnc4cc(C(=O)N5CCC[C@@H]5CO)sc34)ccc21 [Example 8q, 5-[2-(2R-Hydroxymethyl-pyrrolidine-1-carbonyl)-thieno[3,2-b]pyridin-7-yloxy]-2-methyl-indole-1-carboxylic acid prop-2-ynylamide] | 95 | 
0.243 | 98 |  | 0.29 nM and 0.86 nM and 0.34 nM |  | CNC(=O)n1c(C)cc2cc(Oc3ccnc4cc(C(=O)N5CC[C@H](O)C5)sc34)ccc21 [Example 9g, 5-[2-(3S-Hydroxy-pyrrolidine-1-carbonyl)-thieno[3,2-b]pyridin-7-yloxy]-2-methyl-indole-1-carboxylic acid methylamide] | 45 | 40 nM
0.245 | 98 |  | 0.33 nM |  | CCCNC(=O)n1c(C)cc2cc(Oc3ccnc4cc(C(=O)N5CC[C@H](O)C5)sc34)ccc21 [Example 9i, 5-[2-(3S-Hydroxy-pyrrolidine-1-carbonyl)-thieno[3,2-b]pyridin-7-yloxy]-2-methyl-indole-1-carboxylic acid propylamide] | 5 | 
0.327 | 97 |  | 0.76 nM and 0.51 nM |  | Cc1cc2cc(Oc3ccnc4cc(C(=O)N5CC[C@H](O)C5)sc34)ccc2n1C(=O)NCCCO [Example 9l, 5-[2-(3S-Hydroxy-pyrrolidine-1-carbonyl)-thieno[3,2-b]pyridin-7-yloxy]-2-methyl-indole-1-carboxylic acid (3-hydroxy-propyl)-amide] | 37.6 | 
